# Test results published in ChEMBL document CHEMBL1201862, “PubChem BioAssay data set” (2004).
# Activity calls are given as the source filed them. For most assays here, no stated cut-off is given here; in the data, actives have a measured EC50 and inactives only a lower limit.
# Legend:
# [1] = Luminescence Cell-Based Dose Confirmation HTS to Identify Inhibitors of Polyadenylation.; type: functional
# [2] = Luminescence Cell-Based Dose Response to Identify Activators of 5'UTR Stem-Loop Driven Prion Protein mRNA Translation in H4-C Neuroglioblastoma Cells. [Related pubchem assays: 1829 (Project Summary), 1814 (Primary HTS)]; type: functional
# [3] = Luminescence Cell-Based Dose Response HTS to Identify Activators of Luciferase Translation or Activity in H4 […] Cells. [Related pubchem assays: 1829 (Project Summary), 1814 (Primary HTS)]; type: functional
# H4 = assay: Luminescence Cell-Based Dose Response HTS to Identify Activators of 5'UTR Stem-Loop Driven Prion Protein mRNA Translation in H4 Neuroglioblastoma Cells. [Related pubchem assays: 1829 (Project Summary), 1814 (Primary HTS)]; type: functional; settings: Homo sapiens
# [4] = Luminescence Cell-Based Dose Response to Identify Activators of Luciferase Translation or Activity in H4-C Neuroglioblastoma Cells. [Related pubchem assays: 1829 (Project Summary), 1814 (Primary HTS)]; type: functional
# [5] = Luminescence Cell-Based Dose Confirmation to Identify Activators of 5'UTR Stem-Loop Driven Alpha-Synuclein mRNA Translation in H4 Neuroglioblastoma Cells. [Related pubchem assays: 1829 (Project Summary), 1814 (Primary HTS)]; type: functional
# [6] = target: T1, Long-chain-fatty-acid--AMP ligase FadD28 (Mycobacterium tuberculosis, UniProt P9WQ59); assay: Fluorescence polarization aasay to screen for inhibitors that compete for the binding of FadD28 to a bisubstrate Measured in Biochemical System Using Plate Reader - 2147-01_Inhibitor_Dose_CherryPick_Activity.; type: functional, Mycobacterium tuberculosis H37Rv
# T1 sequence (P9WQ59 whole entry): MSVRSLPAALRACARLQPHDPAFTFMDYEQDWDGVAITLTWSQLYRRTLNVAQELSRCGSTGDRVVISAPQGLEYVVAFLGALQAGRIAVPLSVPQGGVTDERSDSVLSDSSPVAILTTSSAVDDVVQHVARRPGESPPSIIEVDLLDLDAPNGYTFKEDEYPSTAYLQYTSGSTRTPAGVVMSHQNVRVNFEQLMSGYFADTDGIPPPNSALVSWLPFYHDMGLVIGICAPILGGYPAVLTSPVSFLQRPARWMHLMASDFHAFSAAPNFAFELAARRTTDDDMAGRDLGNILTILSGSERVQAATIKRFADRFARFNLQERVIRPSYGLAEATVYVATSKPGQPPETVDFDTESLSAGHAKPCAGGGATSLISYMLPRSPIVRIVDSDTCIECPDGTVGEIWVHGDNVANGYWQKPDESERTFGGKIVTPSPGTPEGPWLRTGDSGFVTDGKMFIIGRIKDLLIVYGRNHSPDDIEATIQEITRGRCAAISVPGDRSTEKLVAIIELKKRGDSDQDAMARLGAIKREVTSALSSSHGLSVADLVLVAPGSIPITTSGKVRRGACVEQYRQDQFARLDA
# [7] = cytotoxicity in HPDE-C7 cells, cell-based, fluorescence, HTS (AID 430); type: functional; settings: Homo sapiens
# [8] = cytotoxicity in KRAS-transformed pancreatic duct cells, primary screen, cell-based, fluorescence, HTS (AID 431); type: functional; settings: Homo sapiens;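 further: cell line used: HPDE-C7K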
smiles,measurement,setting,value
C/C(=N\NC(=O)COc1ccc(C)cc1[N+](=O)[O-])c1cccs1,EC50,[1],> 120 µM (not active)
O=C(O)c1ccc(N/N=C/C(Br)=C/c2ccccc2)cc1,EC50,[2],0.316 µM (active)
same,EC50,[3],< 0.1 µM (active)
same,EC50,H4,7.2 µM (active)
same,EC50,[4],0.368 µM (active)
same,EC50,[5],0.425 µM (active)
same,AC50,[6],> 100 µM (inactive)
Cc1cc(C(=O)Nc2sc3c(c2C#N)CCC(C)C3)cs1 (centres undefined),EC50,[7],> 20 µM (not active)
same,EC50,[8],> 20 µM (not active)
